Measured values as given in the supplement of paper PMC10307832.

Legend:
Test in all cases: relative viability (nuclei count vs DMSO), 5 days (fraction); higher = more cells survive
AZD6482 + Linsitinib = compound: Cc1cc([C@@H](C)Nc2ccccc2C(=O)O)c2nc(N3CCOCC3)cc(=O)n2c1 [AZD6482] + C[C@]1(O)C[C@@H](c2nc(-c3ccc4ccc(-c5ccccc5)nc4c3)c3c(N)nccn32)C1 [Linsitinib] (partner 1 µM)
Summary of the method: (§1)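 Lung cancer cell lines, seeded in 1536-well plates, were treated the following day by pin tool with a single drug or with five library-drug doses (not always all listed) in √10 steps on top of a fixed anchor-drug dose. Cells were fixed and nuclei stained in one step after 5 days, and nuclei were counted. Relative viability is the nuclei count for treated wells divided by that for vehicle wells, reported as medians of duplicate plates.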

[1] = compound: COc1cc2nc(N3CCCN(C)CC3)nc(NC3CCN(Cc4ccccc4)CC3)c2cc1OC + CCNC(=O)c1noc(-c2cc(C(C)C)c(O)cc2O)c1-c1ccc(CN2CCOCC2)cc1 [Luminespib] (partner 0.01 µM)
Summary of the method: as §1

[2] = compound: COc1cc2nc(N3CCCN(C)CC3)nc(NC3CCN(Cc4ccccc4)CC3)c2cc1OC + O=C(c1cc(Cc2n[nH]c(=O)c3ccccc23)ccc1F)N1CCN(C(=O)C2CC2)CC1 [Olaparib] (partner 8 µM)
Summary of the method: as §1

AZD6482 + Decitabine = compound: Cc1cc([C@@H](C)Nc2ccccc2C(=O)O)c2nc(N3CCOCC3)cc(=O)n2c1 [AZD6482] + Nc1ncn([C@H]2C[C@H](O)[C@@H](CO)O2)c(=O)n1 [Decitabine] (partner 2 µM)
Summary of the method: as §1

Cell Line	relative viability (AZD6482 + Linsitinib; first compound 0.08 µM)	relative viability (AZD6482 + Linsitinib; first compound 0.253 µM)	relative viability (AZD6482 + Linsitinib; first compound 0.8 µM)	relative viability (AZD6482 + Linsitinib; first compound 2.53 µM)	relative viability (AZD6482 + Linsitinib; first compound 8 µM)	relative viability ([1]; first compound 0.2 µM)	relative viability ([1]; first compound 0.6325 µM)	relative viability ([1]; first compound 2 µM)	relative viability ([1]; first compound 6.325 µM)	relative viability ([2]; first compound 0.2 µM)	relative viability ([2]; first compound 0.6325 µM)	relative viability ([2]; first compound 2 µM)	relative viability ([2]; first compound 6.325 µM)	relative viability (AZD6482 + Decitabine; first compound 0.08 µM)	relative viability (AZD6482 + Decitabine; first compound 0.253 µM)	relative viability (AZD6482 + Decitabine; first compound 0.8 µM)	relative viability (AZD6482 + Decitabine; first compound 2.53 µM)	relative viability (AZD6482 + Decitabine; first compound 8 µM)
NCI-H358	0.545	0.795	0.679	0.293	0.528	0.506	0.275	0.434	0.208	0.51	0.628	0.644	0.568	0.246	0.218	0.237	0.185	0.189
NCI-H441	0.459	0.499	0.554	0.323	0.531	0.318	0.368	0.334	0.584	0.566	0.495	0.691	0.551	0.254	0.198	0.295	–	0.214
NCI-H460	0.717	0.703	0.783	0.306	0.206	0.0382	0.0418	0.0348	0.0281	0.425	0.397	0.37	0.323	0.445	0.38	0.618	0.452	0.395
NCI-H520	0.773	0.623	0.59	–	0.412	0.321	0.227	0.27	0.214	0.332	0.321	0.324	0.144	0.418	0.331	0.344	0.198	0.244
NCI-H596	0.789	0.979	1.01	0.957	1.02	0.87	0.871	0.927	1.02	0.677	0.721	0.736	0.672	0.865	0.937	0.972	1.01	0.946
NCI-H647	0.877	–	0.739	0.7	0.659	0.352	0.249	0.159	0.292	0.517	0.443	0.537	0.242	0.374	0.406	0.302	0.236	0.361
NCI-H650	0.856	–	0.753	0.362	0.491	0.746	0.628	0.783	0.661	0.445	0.356	0.434	0.396	0.318	0.292	0.378	0.33	0.317
NCI-H661	0.446	0.422	0.398	–	0.37	0.903	0.894	0.911	0.957	0.731	0.713	0.822	0.782	0.557	0.569	0.571	0.498	0.422
NCI-H727	0.203	0.296	0.284	–	0.281	0.332	0.355	0.512	0.56	0.646	0.616	0.772	0.59	0.951	0.85	1.02	–	0.798
NCI-H838	0.805	0.994	0.934	0.614	0.769	0.378	0.324	0.296	0.294	0.762	0.717	0.791	0.777	0.436	0.442	0.433	0.428	0.364
NCI-H1355	0.472	0.55	0.576	0.526	0.536	0.715	0.693	0.734	0.773	0.714	0.743	0.862	0.79	0.346	0.362	0.363	0.341	0.35
NCI-H1395	0.879	0.639	0.661	0.436	0.732	0.7	0.695	0.7	0.71	0.444	0.473	0.445	0.433	0.584	0.601	0.636	0.496	0.489
NCI-H1437	0.943	1.08	0.998	0.574	0.657	1.12	1.06	1.21	0.965	0.626	0.628	0.623	0.574	0.572	0.523	0.607	0.572	0.407
NCI-H1651	0.674	0.663	0.733	0.63	0.591	0.905	0.846	1.14	0.804	0.181	0.149	0.157	0.17	0.627	0.429	0.572	0.446	0.482
NCI-H1666	0.536	0.586	0.63	0.589	0.574	0.973	0.997	1.11	0.947	0.716	0.754	0.756	0.751	0.72	0.687	0.715	0.645	0.642
NCI-H1734	0.666	0.589	0.701	0.384	0.554	0.182	0.194	0.183	0.172	0.61	0.533	0.645	0.594	0.508	0.476	0.463	0.407	0.435
NCI-H1755	0.87	0.864	0.75	0.497	0.467	0.44	0.536	0.406	0.478	0.805	0.832	0.85	0.831	0.709	0.733	0.749	0.668	0.6
NCI-H1792	0.313	0.41	0.501	0.319	0.271	–	0.377	0.419	0.721	0.49	0.409	0.485	0.441	0.519	0.479	0.549	0.356	0.476
